What all share (assay): Transfection with β-galactosidase reporter plasmid pCMVSPORT-β-gal, β-gal activity (ONPG)
What all share (type): cell-based

One experiment concerns PC12. The settings on record: PC12 cells; DMS lipid (1:1 DOPE), 1.0 μg plasmid DNA, 1.0 ug peptide; β-gal activity OD 405 nm.
A further experiment concerns HepG2. The settings on record: HepG2 cells; DMS lipid (1:1 DOPE), 1.0 μg plasmid DNA, 1.0 ug peptide; β-gal activity OD 405 nm. The protocol: (§1) Transfection of, NIH3T3, HepG2, Human Fibroblast, Jurkat and Cos-7 and with β-galactosidase reporter plasmid pCMV[…]SPORT-β-gal was carried out as follows:
(§2) Cells were plated in 96-well plates with 100 μl of media containing 10% fetal calf serum the day before transfection such that a desired confluency (70%-95%) was achieved the following day. The following day DMS lipid (1:1 DOPE) and DNA/peptide were mixed in Opti-MEM to form DNA/lipid/peptide complexes. Complexes were formed by adding various amounts of lipid (1-6 μl) to 100 μl of Opti-MEM. Plasmid DNA (1.0 μg) was added to 100 μl Opti-MEM then 1.0 ug of each peptide was added to the DNA mixture and incubated for 10 minutes. The DNA/peptide and lipids solutions were then mixed to form DNA/peptide/lipid complexes. The complexes were incubated for an additional 15 minutes. After incubation 20 μl of each of the resulting complexes was added directly to the cells in 10% serum. Cells were incubated for an additional 16-24 hours to allow expression of the plasmid. Medium was removed and the cells were lysed in 100-200 μl of lysis buffer. The lysates (20 μl) were assayed for β-gal activity using the enzymatic substrate ONPG. Total activity was determined by reading the OD at 405 nm using a Bio-Rad Benchmark Microplate Spectrophotometer.

Another experiment deals with Human Fibroblast. The following applies: DMS lipid (1:1 DOPE), 1.0 μg plasmid DNA, 1.0 ug peptide, β-gal activity OD 405 nm. Here is the method:
as §1, §2

For another experiment, the system named is Jurkat. The following applies: Jurkat cells; DMS lipid (1:1 DOPE), 1.0 μg plasmid DNA, 1.0 ug peptide; β-gal activity OD 405 nm. The protocol: as §1, §2
Another experiment deals with NIH 3T3. The following applies: NIH 3T3 cells; DMS lipid (1:1 DOPE), 1.0 μg plasmid DNA, 1.0 ug peptide; β-gal activity OD 405 nm. Here is the method: as §1, §2

As for (K)16DYYCAAWDDSLNGYSVF [Peptide #5], the “Fold Ehancement over Lipid Alone” value in the experiment with PC12 was determined as 1.6 Fold; in the experiment on HepG2, 2 Fold; in the experiment with Human Fibroblast, 12 Fold; in the experiment on Jurkat, 1.28 Fold; with NIH 3T3, 2.5 Fold.
The corresponding values for (K)16YYCARSDGNYGYYYALDYDY [Peptide #8] are 0.37 Fold, 1.6 Fold, 19.9 Fold, 1 Fold and 1.86 Fold.
The corresponding values for (K)16NSRDSSGIQNV [Peptide #2] are 2.09 Fold, 1.3 Fold, 14.5 Fold, 4.8 Fold and 0.89 Fold.
The corresponding values for (K)16YYCLQSMEDPYTFGG [Peptide #7] are 0.91 Fold, 3.3 Fold, 29 Fold, 1.47 Fold and 1.46 Fold.
In the case of (K)16YYCDIRLRDP [Peptide #1], the “Fold Ehancement over Lipid Alone” value in the experiment with PC12 was determined as 1.8 Fold; with HepG2, 0.97 Fold; with Human Fibroblast it was 3.7 Fold; in the experiment on Jurkat, 4.56 Fold; in the experiment with NIH 3T3, 1.7 Fold.
The matching figures for (K)16AAWDDSLGI [Peptide #3]: 2.88 Fold, 1.9 Fold, 12.9 Fold, 4.5 Fold and 1.5 Fold.
For (K)16YYCQQSYSTPWTFGQGTK [Peptide #10], the “Fold Ehancement over Lipid Alone” value in the experiment with PC12 worked out at 1.4 Fold; in the experiment with HepG2, 2.5 Fold; with Human Fibroblast, 22.7 Fold; with Jurkat it was 2 Fold; in the experiment with NIH 3T3 it was 2.1 Fold.
As to (K)16AARSPSYYRYDYGPYYAMDYD [Peptide #9], the “Fold Ehancement over Lipid Alone” value in the experiment on PC12 stood at 2.68 Fold; with HepG2, 4.25 Fold; with Human Fibroblast it was 21.9 Fold; with Jurkat it was 5.78 Fold; with NIH 3T3, 2.17 Fold.
The matching figures for (K)16VELDSFDY [Peptide #4]: 2.5 Fold, 1.2 Fold, 11.7 Fold, 4.75 Fold and 1.65 Fold.
The matching figures for (K)16YYCQQRSSYPYTFGG [Peptide #6]: 1.13 Fold, 4.2 Fold, 34 Fold, 1.75 Fold and 1.93 Fold.

(Values after patent US20110200624A1, “NOVEL PEPTIDES FOR USE IN TRANSFECTION” (MOLECULAR TRANSFER, INC., priority 2008, published 2011).)
